Test results as given in patent publication US8598314B2 (priority 2007, dated 2013).
*1 amine or outer side, *2 acyl side, *3 side chain or, on linkers, in order; H or OH if unused. Where no end group is shown, it is not given here. Side-chain parts run from the residue outwards. The star is where a group is joined. γGlu = O=C(O)[C@H](CCC(=O)[*:2])N[*:1]; Pyrrolidine(2S-CN) = N#C[C@@H]1CCCN1*; AEEA = NCCOCCOCC(=O)O

Test system: NIH/Swiss mice
Assay: Oral glucose tolerance test (OGTT), glucose lowering
Assay type: in vivo
Settings: 30 nM/kg, blood glucose
Description: . Test compounds were injected IP (t=0 min) immediately following baseline measurements of 2 hour fasted NIH/Swiss mice. Blood samples were taken at 60, 120, and 180 minutes after injection. In some assays, samples were also taken at 240 minutes after the injection. Blood glucose was measured with a One-Touch® Ultra® glucose meter (LifeScan, Inc., Milpitas, Calif.). […].
The tests were performed as described in Example 5.

Substance	OGTT (30 nM/kg) % maximal decrease [%]
GIP(1-30)-Ado-Ado-Lys-N-ε-(2-(S)-cyano pyrrolidyl)	−17
GIP(1-30)-Ado-Lys-N-ε-(2-(S)-cyano pyrrolidyl) (YAEGTFISDYSIAMDKIHQQDFVNWLLAQK)	−18
GIP(1-30)-exendin-4(31-39)-Ado-Ado-Lys-N-ε-(2-(S)-cyano pyrrolidyl)	−22
GIP(1-30)-exendin-4(31-39)-Ado-Lys-N-ε-(2-(S)-cyano pyrrolidyl)	−18
Lys^30 N-ε-(Ado-(γ-L-Glu-2-(S)-cyano pyrrolidyl)) GIP(1-30)-exendin-4(31-39)	−11
[Lys^30 N-ε-(Ado-(γ-L-Glu-2-(S)-cyano pyrrolidyl))]GIP(1-30) (YAEGTFISDYSIAMDKIHQQDFVNWLLAQK([AEEA-γGlu-Pyrrolidine(2S-CN)]))	−10
[^14Leu] GIP(1-30)-Ado-Lys-N-ε-(2-(S)-cyano pyrrolidyl) (YAEGTFISDYSIALDKIHQQDFVNWLLAQK)	−9
[^16Lys (N-ε-(Aun-Aun-(γ-L-Glu-2-(S)-cyano pyrrolidyl)))] GIP(1-30)-exendin(31-39)	−3
